Laboratory results taken from paper PMC6265740, “Biochemical and Anti-Triple Negative Metastatic Breast Tumor Cell Properties of Psammaplins” (Marine Drugs, 2018).

Experiments:
MDA-MB-231 [1] = system: MDA-MB-231; set-up: method as in PMID 28574600; conditions: embryonic zebrafish, xenografts, and orthotopic tumor models ref 38; cited from earlier work
MDA-MB-231 [2] = system: MDA-MB-231; set-up: method as in PMID 28574600; conditions: in vitro ref 38; cited from earlier work
SIRT1 = system: SIRT1; set-up: method as in PMID 25445714, PMID 27537898; conditions: breast tumor cells ref 36,37; cited from earlier work
[3] = system: T47D, MDA-MB-231, LM, BoM, BrM cells; assay: Clonogenic assay; assay type: cell-based, human; conditions: 24 h exposure, 10 days; 1 µM paclitaxel and TSA, 10 µM 1–5
Procedure: The effects of psammaplins on the colony-forming ability of single cells were assessed in a clonogenic assay. Cells seeded at low density were exposed to test compounds at the specified concentrations for 24 h. The conditioned media were replaced with growth media and the colonies formed from surviving single cells in 10 days.
Figure 4 Effects of 1–5 and TSA (trichostatin A) on colony formation. Cells plated at low density were exposed to compounds (24 h) at specified concentrations (1 µM for paclitaxel and TSA, and 10 µM for 1–5). After a period of ten days, the cells were fixed and stained.
For the clonogenic assay, exponentially grown cells were seeded at the density of 1000 cells/well into 6-well plates (Cellstar®, Greiner Bio-One GmbH, Kremsmünster, Austria) and incubated at 37 °C for 4 h to allow the cells to adhere. Compound addition was similar as above. After 24 h, the compound-containing conditioned media were replaced with fresh medium containing FBS (10%) and antibiotics. The incubation continued for another 10 days with a change of fresh medium every 5 days, the cells were fixed with methanol and stained with crystal violet (1 mg/mL in 20% ethanol), and the images were acquired with a Kodak digital camera.

BoM spheroids = assay: Cultrex 3D spheroid cell invasion assay; assay type: cell-based, human; conditions: 96 h, in comparison to the HDAC inhibitors
Procedure: In order to form metastatic lesions, metastasis-initiating tumor cells must invade and intravasate into the lymphatic vasculature and/or blood vessels. Psammaplins were evaluated in a Cultrex® 3-D cell invasion assay that monitors the invasion and migration of tumor cells grown as spheroids, which closely model in vivo pathophysiological conditions.
Figure 5 Inhibition of bone metastatic BoM cell invasion. Tumor cell spheroids formed in a special spheroid formation extracellular matrix (ECM) were embedded in an invasion matrix containing 10% fetal bovine serum (FBS) in the presence and absence of compounds at the specified concentrations. Four days later (T96), cell invasion was recorded microscopically (the bar at the bottom right represents 100 µm).
The 3D spheroid cell invasion assay was performed using a commercial kit, following the manufacturer’s instructions (Cultrex® 3D Spheroid Cell Invasion Assay, Trevigen, Gaithersburg, MD, USA). Briefly, exponentially grown MDA-MB-231, LM, BoM, and BrM cells were trypsinized, collected, and resuspended in serum-free DMEM/F12 media. For spheroid formation, 3000 cells were added in a volume of 50 µL serum-free DMEM/F12 media with 1× spheroid formation solution/well into a pre-cooled 96-well plate. The plate was centrifuged at 100× g for 5 min at 4 °C, incubated at 37 °C for 24 h, and the spheroids imaged using an Axiovert 40 CFL microscope (Zeiss, Oberkochen, Germany). The plate was placed on ice, the invasion mix added in a volume of 50 µL/well, centrifuged at 350× g for 5 min at 4 °C, and incubated at 37 °C for 1 h. Test compounds and controls were diluted to two times the final concentrations in DMEM/F12 media supplemented with FBS (10%) and antibiotics, and added in a volume of 100 µL/well. The incubation continued for another 4 days at 37 °C and the cells/spheroids imaged (T96).

C=CCSSSCC=C [Garlic diallyl trisulfide, diallyl trisulfide]
MDA-MB-231 metastatic potential (MDA-MB-231 [1]): suppress MDA-MB-231 metastatic potential
MDA-MB-231 migration and angiogenesis (MDA-MB-231 [2]): inhibited MDA-MB-231 migration and angiogenesis

O=C(NCCSSCCNC(=O)/C(Cc1ccc(O)c(Br)c1)=N/O)/C(Cc1ccc(O)c(Br)c1)=N/O [Psammaplin A]
SIRT1 enzyme expression and activity (SIRT1): decreased SIRT1 enzyme expression and activity

CC(=O)O[C@H]1C(=O)[C@@]2(C)[C@H]([C@H](OC(=O)c3ccccc3)[C@]3(O)C[C@H](OC(=O)[C@H](O)[C@@H](NC(=O)c4ccccc4)c4ccccc4)C(C)=C1C3(C)C)[C@]1(OC(C)=O)CO[C@@H]1C[C@@H]2O [paclitaxel]
colony formation [3]: blocked colony formation in all cell lines
size of the spheroids (BoM spheroids): more pronounced decrease in the size of the spheroids
